Results from the supplement of paper PMC13386468.

Columns and labels:
Assay in all cases: IC50 for competition of protein binding to Kinobeads
Details in all cases: assay detail: Kinobeads competition in P. falciparum blood-stage lysate
UniProt C6KSP9 = target: UniProt C6KSP9
UniProt Q8IJZ9 = target: UniProt Q8IJZ9
UniProt Q8IIL7 = target: UniProt Q8IIL7
UniProt Q8I5Y3 = target: UniProt Q8I5Y3
UniProt Q8IIK2 = target: UniProt Q8IIK2
UniProt O97225 = target: UniProt O97225
UniProt Q8II72 = target: UniProt Q8II72
UniProt O77328 = target: UniProt O77328
UniProt Q8IAM0 = target: UniProt Q8IAM0
UniProt Q8IJR9 = target: UniProt Q8IJR9
UniProt Q9TY99 = target: UniProt Q9TY99
UniProt C6KSW5 = target: UniProt C6KSW5
UniProt Q8ILZ3 = target: UniProt Q8ILZ3
UniProt Q8IL57 = target: UniProt Q8IL57
UniProt Q8I5A6 = target: UniProt Q8I5A6
UniProt C6KTA7 = target: UniProt C6KTA7
UniProt Q8I442 = target: UniProt Q8I442
UniProt Q8IDZ9 = target: UniProt Q8IDZ9
UniProt Q8I5Y9 = target: UniProt Q8I5Y9
UniProt O77310 = target: UniProt O77310
UniProt Q8I526 = target: UniProt Q8I526
UniProt Q8IJ72 = target: UniProt Q8IJ72
UniProt Q8ID49 = target: UniProt Q8ID49
UniProt Q8IIU5 = target: UniProt Q8IIU5
UniProt Q8I3U9 = target: UniProt Q8I3U9
UniProt O77388 = target: UniProt O77388
UniProt C6KT96 = target: UniProt C6KT96
UniProt O96278 = target: UniProt O96278
UniProt Q8IJ60 = target: UniProt Q8IJ60
UniProt Q7K6A8 = target: UniProt Q7K6A8
UniProt Q8I0U7 = target: UniProt Q8I0U7
UniProt P50250 = target: UniProt P50250
UniProt Q8IM38 = target: UniProt Q8IM38
UniProt Q8IHR5 = target: UniProt Q8IHR5
UniProt Q8I2J3 = target: UniProt Q8I2J3
UniProt Q8I3Z1 = target: UniProt Q8I3Z1
UniProt Q8IIM5 = target: UniProt Q8IIM5
UniProt Q8I2V4 = target: UniProt Q8I2V4
UniProt Q8I445 = target: UniProt Q8I445
UniProt Q8I2X3 = target: UniProt Q8I2X3
UniProt Q8IHR6 = target: UniProt Q8IHR6
UniProt Q8IBJ1 = target: UniProt Q8IBJ1
UniProt Q8IIK8 = target: UniProt Q8IIK8
UniProt Q8IIJ8 = target: UniProt Q8IIJ8
UniProt C0H4A6 = target: UniProt C0H4A6
UniProt Q8IKZ8 = target: UniProt Q8IKZ8
UniProt Q8I1U8 = target: UniProt Q8I1U8
UniProt Q8IJD4 = target: UniProt Q8IJD4
UniProt Q8IDV2 = target: UniProt Q8IDV2
UniProt C0H491 = target: UniProt C0H491
UniProt Q8ILY8 = target: UniProt Q8ILY8
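Note: native unpurified kinases from lysate captured on beads bearing immobilized kinase inhibitors, with bead-bound kinases quantified by mass spectrometry across compound doses.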

Sequence of UniProt Q8IJR9 (Q8IJR9 whole entry): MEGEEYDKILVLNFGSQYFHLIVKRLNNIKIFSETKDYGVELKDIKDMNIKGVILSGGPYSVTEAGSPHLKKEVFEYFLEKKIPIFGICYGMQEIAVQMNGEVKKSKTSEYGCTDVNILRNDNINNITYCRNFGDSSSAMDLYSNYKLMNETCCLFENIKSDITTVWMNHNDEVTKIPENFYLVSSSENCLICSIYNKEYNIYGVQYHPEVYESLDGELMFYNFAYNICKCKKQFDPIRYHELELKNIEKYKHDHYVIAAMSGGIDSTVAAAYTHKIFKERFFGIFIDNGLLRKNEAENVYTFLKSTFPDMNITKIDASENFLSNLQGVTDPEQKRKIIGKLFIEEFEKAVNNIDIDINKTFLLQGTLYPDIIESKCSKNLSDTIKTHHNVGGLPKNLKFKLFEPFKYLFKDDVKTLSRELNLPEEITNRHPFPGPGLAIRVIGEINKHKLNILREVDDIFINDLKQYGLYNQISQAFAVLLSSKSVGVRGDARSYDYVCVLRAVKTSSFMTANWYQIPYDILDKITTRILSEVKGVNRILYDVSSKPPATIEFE
Sequence of UniProt P50250 (P50250 whole entry): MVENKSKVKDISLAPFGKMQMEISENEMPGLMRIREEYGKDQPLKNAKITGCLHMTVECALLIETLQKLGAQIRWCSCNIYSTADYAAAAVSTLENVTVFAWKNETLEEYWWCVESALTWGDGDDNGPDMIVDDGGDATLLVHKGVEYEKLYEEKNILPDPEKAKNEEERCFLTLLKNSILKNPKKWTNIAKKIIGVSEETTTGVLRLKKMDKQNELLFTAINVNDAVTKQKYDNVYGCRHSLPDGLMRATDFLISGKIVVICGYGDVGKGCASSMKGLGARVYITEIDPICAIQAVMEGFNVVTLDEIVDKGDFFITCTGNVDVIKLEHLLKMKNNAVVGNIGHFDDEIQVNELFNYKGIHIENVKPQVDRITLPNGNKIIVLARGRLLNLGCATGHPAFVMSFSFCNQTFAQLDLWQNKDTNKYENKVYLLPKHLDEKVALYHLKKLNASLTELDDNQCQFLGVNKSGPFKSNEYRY
Sequence of UniProt Q8I2J3 (Q8I2J3 whole entry): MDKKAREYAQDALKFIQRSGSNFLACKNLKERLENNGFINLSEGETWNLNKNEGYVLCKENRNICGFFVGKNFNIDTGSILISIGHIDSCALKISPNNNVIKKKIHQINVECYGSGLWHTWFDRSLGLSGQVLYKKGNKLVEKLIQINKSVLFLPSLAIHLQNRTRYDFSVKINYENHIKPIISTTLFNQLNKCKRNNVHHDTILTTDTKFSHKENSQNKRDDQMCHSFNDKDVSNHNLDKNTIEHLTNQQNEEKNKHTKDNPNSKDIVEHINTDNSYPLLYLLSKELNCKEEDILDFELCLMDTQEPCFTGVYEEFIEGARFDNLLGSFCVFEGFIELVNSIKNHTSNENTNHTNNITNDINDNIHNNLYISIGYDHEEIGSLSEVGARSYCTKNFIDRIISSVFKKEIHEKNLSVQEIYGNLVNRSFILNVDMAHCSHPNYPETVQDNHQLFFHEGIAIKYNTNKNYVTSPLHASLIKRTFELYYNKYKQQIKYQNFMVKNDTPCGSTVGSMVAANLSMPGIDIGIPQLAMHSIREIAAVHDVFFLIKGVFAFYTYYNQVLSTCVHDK
Sequence of UniProt O77310 (O77310 whole entry): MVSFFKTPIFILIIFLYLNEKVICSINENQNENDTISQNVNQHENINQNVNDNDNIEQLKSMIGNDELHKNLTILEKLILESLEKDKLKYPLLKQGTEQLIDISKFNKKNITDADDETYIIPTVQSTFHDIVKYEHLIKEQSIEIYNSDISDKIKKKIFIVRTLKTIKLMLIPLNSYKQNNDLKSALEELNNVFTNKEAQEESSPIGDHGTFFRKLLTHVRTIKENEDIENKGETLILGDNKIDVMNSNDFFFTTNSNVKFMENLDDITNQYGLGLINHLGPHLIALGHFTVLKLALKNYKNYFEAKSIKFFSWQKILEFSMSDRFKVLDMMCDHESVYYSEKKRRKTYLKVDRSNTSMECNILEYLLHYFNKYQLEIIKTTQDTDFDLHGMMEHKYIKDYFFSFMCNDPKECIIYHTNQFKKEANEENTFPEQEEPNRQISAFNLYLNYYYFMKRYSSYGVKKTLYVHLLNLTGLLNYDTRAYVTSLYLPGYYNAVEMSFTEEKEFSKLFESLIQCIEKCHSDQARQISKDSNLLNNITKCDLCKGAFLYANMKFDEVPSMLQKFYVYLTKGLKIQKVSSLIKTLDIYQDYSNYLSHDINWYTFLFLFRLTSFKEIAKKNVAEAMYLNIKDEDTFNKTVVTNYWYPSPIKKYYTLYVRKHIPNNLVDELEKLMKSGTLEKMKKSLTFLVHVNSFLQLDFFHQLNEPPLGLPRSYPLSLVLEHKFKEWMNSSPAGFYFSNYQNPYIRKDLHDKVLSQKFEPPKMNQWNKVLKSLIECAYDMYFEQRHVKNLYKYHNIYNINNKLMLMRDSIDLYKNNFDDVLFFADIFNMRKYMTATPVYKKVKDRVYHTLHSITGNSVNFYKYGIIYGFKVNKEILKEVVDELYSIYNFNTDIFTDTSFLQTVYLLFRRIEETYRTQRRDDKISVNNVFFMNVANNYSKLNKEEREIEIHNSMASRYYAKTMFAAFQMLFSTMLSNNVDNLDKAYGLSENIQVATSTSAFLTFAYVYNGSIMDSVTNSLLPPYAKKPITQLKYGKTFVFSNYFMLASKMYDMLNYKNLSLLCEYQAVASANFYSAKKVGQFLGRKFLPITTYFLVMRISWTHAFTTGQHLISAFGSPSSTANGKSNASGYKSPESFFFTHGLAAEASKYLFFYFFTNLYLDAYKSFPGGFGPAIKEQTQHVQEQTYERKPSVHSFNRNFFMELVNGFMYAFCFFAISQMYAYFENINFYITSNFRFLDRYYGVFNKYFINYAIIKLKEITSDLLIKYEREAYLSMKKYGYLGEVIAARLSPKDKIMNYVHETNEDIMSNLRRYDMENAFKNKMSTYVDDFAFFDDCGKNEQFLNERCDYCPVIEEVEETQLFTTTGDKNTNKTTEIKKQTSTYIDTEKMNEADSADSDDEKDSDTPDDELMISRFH
Sequence of UniProt Q8I2X3 (Q8I2X3 whole entry): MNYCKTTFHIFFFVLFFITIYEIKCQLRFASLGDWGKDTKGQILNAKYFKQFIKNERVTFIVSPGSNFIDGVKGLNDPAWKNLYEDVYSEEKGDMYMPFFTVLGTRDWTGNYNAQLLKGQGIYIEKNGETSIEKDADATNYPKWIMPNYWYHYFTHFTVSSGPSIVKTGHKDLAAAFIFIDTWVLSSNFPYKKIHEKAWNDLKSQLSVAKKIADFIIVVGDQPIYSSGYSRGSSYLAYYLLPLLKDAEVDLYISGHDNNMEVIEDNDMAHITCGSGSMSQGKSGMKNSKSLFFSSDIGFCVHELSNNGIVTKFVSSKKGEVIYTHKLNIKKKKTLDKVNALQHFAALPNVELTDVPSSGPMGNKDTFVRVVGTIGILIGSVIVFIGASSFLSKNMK
Sequence of UniProt Q8IJD4 (Q8IJD4 whole entry): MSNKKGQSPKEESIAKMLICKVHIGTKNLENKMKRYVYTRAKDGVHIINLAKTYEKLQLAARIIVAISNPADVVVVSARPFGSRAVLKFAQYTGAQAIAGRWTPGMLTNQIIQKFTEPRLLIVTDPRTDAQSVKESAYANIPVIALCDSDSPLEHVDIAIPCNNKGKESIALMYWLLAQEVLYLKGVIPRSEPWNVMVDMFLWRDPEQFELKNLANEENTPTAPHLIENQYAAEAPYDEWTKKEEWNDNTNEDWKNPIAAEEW

## O=c1[nH]c2ccc(Cl)cc2c(NC2CN3CCC2CC3)c1-c1nc2ccccc2[nH]1 (stereo unspecified) [CHIR-124]
UniProt C6KSP9
  IC50: > 20 µM
UniProt Q8IJZ9
  IC50: > 20 µM
UniProt Q8IIL7
  IC50: > 20 µM
UniProt Q8I5Y3
  IC50: > 20 µM
UniProt Q8IIK2
  IC50: > 20 µM
UniProt O97225
  IC50: > 20 µM
UniProt Q8II72
  IC50: > 20 µM
UniProt O77328
  IC50: > 20 µM
UniProt Q8IAM0
  IC50: > 20 µM
UniProt Q8IJR9
  IC50: > 20 µM
UniProt Q9TY99
  IC50: > 20 µM
UniProt C6KSW5
  IC50: > 20 µM
UniProt Q8ILZ3
  IC50: > 20 µM
UniProt Q8IL57
  IC50: > 20 µM
UniProt Q8I5A6
  IC50: > 20 µM
UniProt C6KTA7
  IC50: > 20 µM
UniProt Q8I442
  IC50: 9.2 µM
UniProt Q8IDZ9
  IC50: > 20 µM
UniProt Q8I5Y9
  IC50: > 20 µM
UniProt O77310
  IC50: > 20 µM
UniProt Q8I526
  IC50: > 20 µM
UniProt Q8IJ72
  IC50: > 20 µM
UniProt Q8ID49
  IC50: > 20 µM
UniProt Q8IIU5
  IC50: > 20 µM
UniProt Q8I3U9
  IC50: > 20 µM
UniProt O77388
  IC50: > 20 µM
UniProt C6KT96
  IC50: > 20 µM
UniProt O96278
  IC50: > 20 µM
UniProt Q8IJ60
  IC50: > 20 µM
UniProt Q7K6A8
  IC50: > 20 µM
UniProt Q8I0U7
  IC50: > 20 µM
UniProt P50250
  IC50: > 20 µM
UniProt Q8IM38
  IC50: > 20 µM
UniProt Q8IHR5
  IC50: > 20 µM
UniProt Q8I2J3
  IC50: > 20 µM
UniProt Q8I3Z1
  IC50: > 20 µM
UniProt Q8IIM5
  IC50: > 20 µM
UniProt Q8I2V4
  IC50: > 20 µM
UniProt Q8I445
  IC50: > 20 µM
UniProt Q8I2X3
  IC50: > 20 µM
UniProt Q8IHR6
  IC50: > 20 µM
UniProt Q8IBJ1
  IC50: > 20 µM
UniProt Q8IIK8
  IC50: > 20 µM
UniProt Q8IIJ8
  IC50: > 20 µM
UniProt C0H4A6
  IC50: > 20 µM
UniProt Q8IKZ8
  IC50: > 20 µM
UniProt Q8I1U8
  IC50: > 20 µM
UniProt Q8IJD4
  IC50: > 20 µM
UniProt Q8IDV2
  IC50: > 20 µM
UniProt C0H491
  IC50: > 20 µM
UniProt Q8ILY8
  IC50: > 20 µM
